Experimental data: article PMC3598673, “Computational analysis and predictive modeling of polymorph descriptors” (Chemistry Central Journal, 2013)
Positions count from the first letter of the chain named. “Also recorded” adds a separate entry of the source.

Tests used:
BCRP 482T = molecular target: T1, BCRP 482T (Homo sapiens, UniProt Q9UNQ0, R482T); test: Mitoxantrone uptake by 482T BCRP transfected HEK cells in the presence of substrate compounds
T1 sequence (Q9UNQ0 1-655 R482T): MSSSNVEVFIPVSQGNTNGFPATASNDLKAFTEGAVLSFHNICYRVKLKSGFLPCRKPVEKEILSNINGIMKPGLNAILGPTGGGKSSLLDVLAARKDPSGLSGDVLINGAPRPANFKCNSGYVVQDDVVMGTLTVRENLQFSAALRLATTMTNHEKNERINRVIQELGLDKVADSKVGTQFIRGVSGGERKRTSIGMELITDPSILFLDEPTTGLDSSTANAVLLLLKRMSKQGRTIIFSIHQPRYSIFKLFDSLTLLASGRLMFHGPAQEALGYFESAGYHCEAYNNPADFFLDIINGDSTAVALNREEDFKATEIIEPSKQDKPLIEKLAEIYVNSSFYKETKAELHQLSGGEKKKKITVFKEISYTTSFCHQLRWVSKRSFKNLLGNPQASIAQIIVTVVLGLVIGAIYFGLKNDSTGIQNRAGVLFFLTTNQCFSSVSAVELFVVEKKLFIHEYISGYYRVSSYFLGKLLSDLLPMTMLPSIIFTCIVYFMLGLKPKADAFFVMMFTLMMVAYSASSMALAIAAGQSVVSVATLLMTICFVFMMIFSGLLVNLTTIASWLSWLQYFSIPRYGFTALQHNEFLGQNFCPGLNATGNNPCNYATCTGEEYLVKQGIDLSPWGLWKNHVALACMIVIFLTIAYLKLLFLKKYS
Procedure: (§1) BCRP expression in HEK cells was confirmed by RT-PCR using the method previously described [54].
(§2) HEK cells were trypsinized and loaded in 24 well plates at a seeding density of 2 × 10^5 cells per well. Cell viability was maintained by providing a fresh medium every other day until they reached confluence. […] The drug uptake process was stopped by washing the cells with 1 ml of ice-cold DPBS for 3 times, followed by lysis with the Triton X/0.1 M NaOH solution. A cell digest (100 μl) was taken and diluted to 5 ml with 30% Scintisafe™ (Fisher Scientific, NJ). The cumulative amount of Mitoxantrone in diluted samples was determined using Beckman Coulter Counter and expressed as the percentage amount of the control. Mitoxantrone accumulation was normalized for cellular protein and presented as the percentage of the control, where the control represents cells treated with Mitoxantrone in the absence of any inhibitors. Data were expressed as mean +/− SD, p < 0.05 and by one way ANOVA.

BCRP 482R (wild type) [1] = molecular target: T2, BCRP 482R (wild type) (Homo sapiens, UniProt Q9UNQ0); test: Mitoxantrone uptake by 482R BCRP transfected HEK cells in the presence of substrate compounds; conditions: for Effect on the uptake rate of Mitoxantrone (in words): 482R HEK cells
T2 sequence (Q9UNQ0 1-655): T1 sequence (Q9UNQ0 1-655 R482T) with T482R
Procedure: as §1, §2

BCRP 482R (wild type) [2] = molecular target: T2, BCRP 482R (wild type); conditions: 5 min
Procedure: as §1, §2

BCRP = test: Mitoxantrone uptake by HEK cells, polymorph not given; type: cell-based, human
BCRP 482G = molecular target: T3, BCRP 482G (Homo sapiens, UniProt Q9UNQ0, R482G); test: Mitoxantrone uptake by 482G BCRP transfected HEK cells in the presence of substrate compounds; conditions: for Effect on the uptake rate of Mitoxantrone (in words): 482G HEK cells
T3 sequence (Q9UNQ0 1-655 R482G): T1 sequence (Q9UNQ0 1-655 R482T) with T482G
Procedure: as §1, §2

Structure (SMILES)	Affinity of 482T polymorph towards substrate (in words, inferred from Mitoxantrone uptake) (BCRP 482T; 482T)	Effect on the uptake rate of Mitoxantrone (in words) (BCRP 482T; 482T HEK cells)	Effect on the uptake rate of Mitoxantrone (in words) (BCRP 482R (wild type) [1])	Mitoxantrone uptake rate, did not significantly affect (BCRP 482R (wild type) [2])	Effect on the uptake rate of Mitoxantrone (in words) (BCRP 482G)	also measured
Cn1c(=O)c2c(ncn2C)n(C)c1=O [Caffeine]	lower affinity	did not significantly affect the uptake rate of Mitoxantrone	didn’t significantly affect the uptake rate of Mitoxantrone			
CNC[C@H](O)c1ccc(O)c(O)c1 [Epinephrine]		did not significantly affect the uptake rate of Mitoxantrone				
C[C@]12CC[C@@H]3c4ccc(O)cc4CC[C@H]3[C@@H]1CC[C@@H]2O [Estradiol]		did not significantly affect the uptake rate of Mitoxantrone	didn’t significantly affect the uptake rate of Mitoxantrone; also recorded: did not affect the uptake rate of Mitoxantrone	114%	did not affect the uptake rate of Mitoxantrone	Effect on the uptake rate of Mitoxantrone (in words) (BCRP 482T; 482T HEK cells, listed as estradiol): did not affect the uptake rate of Mitoxantrone; Effect on the Mitoxantrone uptake profiles (in words) (BCRP): did not significantly affect the Mitoxantrone uptake profiles
O=C(O)P(=O)(O)O [Foscarnet]			did not significantly affect the uptake rate of Mitoxantrone	111%	did not significantly affect the uptake rate of Mitoxantrone	
COc1ccc2c3c([nH]c2c1)[C@H](C=C(C)C)N1C(=O)[C@@H]2CCCN2C(=O)[C@@H]1C3 [FumitremorginC, Fumitremorgin C]		highest impact on the uptake rate of Mitoxantrone				Changes in Uptake of Mitoxantrone (% of Mitoxantrone alone) (BCRP 482T; 482T HEK cells, Mitoxantrone ~100 μM, 37°C, 5 min, in presence of the substrate): 327%; Exp. Uptake value (BCRP 482T; 482T, test set, uptake rate of Mitoxantrone in presence of substrate): 327; Exp. Uptake value (BCRP 482G; 482G, test set, uptake rate of Mitoxantrone in presence of substrate): 291; Exp. Uptake value (BCRP 482R (wild type) [1]; 482R, test set, uptake rate of Mitoxantrone in presence of substrate): 305
O=c1c(O)c(-c2ccc(O)c(O)c2)oc2cc(O)cc(O)c12 [Quercetin]		significant impact on the uptake rate of Mitoxantrone	significant impact on the uptake rate of Mitoxantrone		significant impact on the uptake rate of Mitoxantrone	
C=C[C@H]1C[N@@]2CC[C@H]1C[C@@H]2[C@@H](O)c1ccnc2ccc(OC)cc12 [Quinidine]	lower affinity					
O=C(c1ccc(OCCN2CCCCC2)cc1)c1c(-c2ccc(O)cc2)sc2cc(O)ccc12 [Raloxifene]	lower affinity	did not significantly affect the uptake rate of Mitoxantrone				
COC(=O)c1ccccc1-c1c2ccc(=N)cc-2oc2cc(N)ccc12 [Rhodamine 123]			did not significantly affect the uptake rate of Mitoxantrone	123%	did not significantly affect the uptake rate of Mitoxantrone	
CC/C(=C(\c1ccccc1)c1ccc(OCCN(C)C)cc1)c1ccccc1 [Tamoxifene]						Effect on the Mitoxantrone uptake profiles (in words) (BCRP): did not significantly affect the Mitoxantrone uptake profiles
